Tested on: Choyang oats
Test: Production (content) of avenanthramides in germinated oats treated with elicitors, HPLC analysis
Format: in vivo
Conditions: for avnA / avnB / avnC / total / Compared to control: Example 3; for avnA / avnB / avnC / total: elicitor treated on day 2 after germination induction for 3 days, concentration not given; for Compared to control: total avenanthramides, control DW for MV, SA, control EtOH for ET, ABA
Procedure: In an embodiment of the present invention, a domestic cultivated breed, Choyang oats, was used. The Choyang oat seeds were immersed for 12 hours, and then sterilized at 50° C. for 10 minutes and used. Two sheets of sterile filter paper were laid on a plant culture dish, poured with 7 ml of water, and then the sterilized Choyang oat seeds were placed and cold-treated at 4° C. for two days. The Choyang oat seeds were cultured under culture conditions of 25° C. and a photoperiod of 16L:8D.
Analysis of avenanthramides of germinated oats recovered in Example of the present invention was performed as follows. First, the obtained germinated oats were powdered using liquid nitrogen. 0.1 g of the oat powder was extracted with 1 ml of 80% methanol, and then sonicated at 50° C. for 20 minutes, extracted, and then centrifuged to obtain an oat extract from an upper layer. The extracted filtrate was dried by injecting air, and the dried product was dissolved in 200 μl of 80% methanol, and filtered using 0.2 μm PTFE (hydrophilic, ADVANTEC, Japan), and the sample was used for high-performance liquid chromatography (HPLC) analysis. A pump system used 4 solvent pumps (quaternary pumps), and a column used ZORBAX SB-18 ([…], 4.6×150 mm) from Agilent, and a mobile phase was analyzed by using gradient elution using water (A, 5% acetonitrile, 0.1% formic acid) and acetonitrile. (B, 0.1% formic acid).
After treatment with the elicitors for 3 days, the avenanthramides were harvested and HPLC was performed. The elicitors used at this time were methyl jasmonate (MJ), abscisic acid (ABA), salicylic acid (SA), ethephon (ET), methyl viologen (MV), and chitosan (CHI). DW was used as a solvent for MV, CHI, and SA, and EtOH was used as a solvent for ET, MJ, and ABA. A case of treating only DW and EtOH (0.1%), which are solvents of each elicitor, was set as a control.
Like in Example 3, 10 μM, 20 μM, 25 μM, 50 μM, 75 μM, and 100 μM of MJ and 10 μM, 20 μM, 25 μM, 50 μM, 75 μM, 100 μM, and 300 μM of ABA were treated by concentration on day 2 after germination, recovered on day 5 after germination, then frozen using liquid nitrogen, and stored at −80° C. until extraction and used. As a control, EtOH, a solvent of MJ and ABA, was treated at a concentration of 0.1%. The experimental results were shown in Tables 2 and 3 and FIGS. 4 and 5 below. […]

SMILES	avnA	avnB	avnC	total	Compared to control (CHI, MJ) [%]	production of avenanthramides compared to control group (Example 3, FIG. 2, CHI, SA vs control DW, MJ, ABA vs control EtOH)
O=P(O)(O)CCCl [ET, ethephon]	86 mg/kg, FW	145.36 mg/kg, FW	74.96 mg/kg, FW	306.32 mg/kg, FW	31.71	–
O=C(O)c1ccccc1O [SA, salicylic acid]	90.53 mg/kg, FW	149.58 mg/kg, FW	64.34 mg/kg, FW	304.45 mg/kg, FW	−9.38	slightly decreased
